Calls of active or inactive are those of the source. The rule behind the calls is not given here.

As usually defined, the Ki is the equilibrium dissociation constant of an inhibitor or competing ligand from its target. The IC50 is the midpoint of a concentration-inhibition curve.

The target in test [1] is T1, Adrenergic receptor alpha-1 (Rattus norvegicus, UniProt P15823+P23944+P43140).
T1 sequence (P15823 whole entry): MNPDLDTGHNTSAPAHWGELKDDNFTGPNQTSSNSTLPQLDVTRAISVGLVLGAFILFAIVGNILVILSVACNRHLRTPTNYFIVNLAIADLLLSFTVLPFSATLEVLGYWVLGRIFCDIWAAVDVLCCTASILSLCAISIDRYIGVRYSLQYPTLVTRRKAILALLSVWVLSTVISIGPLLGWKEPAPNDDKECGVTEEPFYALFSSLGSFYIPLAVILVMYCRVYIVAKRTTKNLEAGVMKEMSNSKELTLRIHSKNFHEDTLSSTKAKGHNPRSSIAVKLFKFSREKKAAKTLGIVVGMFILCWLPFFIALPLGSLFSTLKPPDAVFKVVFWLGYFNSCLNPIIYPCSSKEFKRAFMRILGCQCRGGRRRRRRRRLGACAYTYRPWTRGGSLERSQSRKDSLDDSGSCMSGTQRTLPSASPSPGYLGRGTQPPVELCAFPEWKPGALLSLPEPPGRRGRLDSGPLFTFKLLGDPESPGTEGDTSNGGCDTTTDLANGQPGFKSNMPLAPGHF
T1 sequence (P23944 whole entry): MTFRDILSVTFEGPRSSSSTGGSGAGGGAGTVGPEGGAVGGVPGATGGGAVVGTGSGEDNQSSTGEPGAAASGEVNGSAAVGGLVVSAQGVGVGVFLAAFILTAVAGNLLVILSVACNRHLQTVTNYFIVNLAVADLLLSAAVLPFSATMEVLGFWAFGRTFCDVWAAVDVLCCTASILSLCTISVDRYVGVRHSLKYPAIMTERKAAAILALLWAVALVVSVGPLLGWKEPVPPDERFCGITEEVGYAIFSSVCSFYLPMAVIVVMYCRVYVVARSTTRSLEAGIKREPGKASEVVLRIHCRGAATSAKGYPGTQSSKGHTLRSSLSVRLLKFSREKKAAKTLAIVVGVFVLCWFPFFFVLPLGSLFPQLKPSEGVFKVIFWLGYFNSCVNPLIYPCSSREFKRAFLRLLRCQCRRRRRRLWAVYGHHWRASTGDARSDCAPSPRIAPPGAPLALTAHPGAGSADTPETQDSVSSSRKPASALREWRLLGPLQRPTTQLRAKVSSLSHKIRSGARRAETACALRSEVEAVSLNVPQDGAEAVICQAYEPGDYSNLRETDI
T1 sequence (P43140 whole entry): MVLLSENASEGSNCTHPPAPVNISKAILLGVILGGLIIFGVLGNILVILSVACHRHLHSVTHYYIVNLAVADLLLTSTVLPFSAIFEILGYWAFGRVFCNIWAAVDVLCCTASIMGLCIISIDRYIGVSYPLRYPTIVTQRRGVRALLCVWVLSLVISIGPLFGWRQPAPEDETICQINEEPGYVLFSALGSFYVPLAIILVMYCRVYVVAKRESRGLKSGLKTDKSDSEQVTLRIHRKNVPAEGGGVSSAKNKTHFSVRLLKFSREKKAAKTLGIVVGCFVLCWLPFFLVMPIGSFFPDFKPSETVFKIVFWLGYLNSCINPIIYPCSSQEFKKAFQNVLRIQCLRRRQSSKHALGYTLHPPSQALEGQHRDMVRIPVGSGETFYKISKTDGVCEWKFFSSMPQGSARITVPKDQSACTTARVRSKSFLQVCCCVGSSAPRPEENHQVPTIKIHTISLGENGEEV
The experiment in a line: Displacement [3H]prazosin from alpha1 adrenergic receptor in rat brain cortex homogenates after 30 mins by liquid scintillation counting. Type of test: tissue-based.

The next test addresses D(1A) dopamine receptor (Rattus norvegicus, UniProt P18901). The experiment in a line: Displacement of [3H]SCH 23390 from dopamine D1 receptor in rat corpora striatum homogenates after 15 mins by liquid scintillation counting. In general terms: In a radioligand displacement assay an active substance lowers the binding of a labelled ligand.
The next test concerns the target D(2) dopamine receptor (Rattus norvegicus, UniProt P61169). Nature of the test: Displacement of [3H]spiperone from dopamine D2 receptor in rat corpora striatum homogenates after 15 mins by liquid scintillation counting.
The target of test [2] is T2, 5-hydroxytryptamine receptor 1A (Rattus norvegicus, UniProt P19327).
T2 sequence (P19327 whole entry): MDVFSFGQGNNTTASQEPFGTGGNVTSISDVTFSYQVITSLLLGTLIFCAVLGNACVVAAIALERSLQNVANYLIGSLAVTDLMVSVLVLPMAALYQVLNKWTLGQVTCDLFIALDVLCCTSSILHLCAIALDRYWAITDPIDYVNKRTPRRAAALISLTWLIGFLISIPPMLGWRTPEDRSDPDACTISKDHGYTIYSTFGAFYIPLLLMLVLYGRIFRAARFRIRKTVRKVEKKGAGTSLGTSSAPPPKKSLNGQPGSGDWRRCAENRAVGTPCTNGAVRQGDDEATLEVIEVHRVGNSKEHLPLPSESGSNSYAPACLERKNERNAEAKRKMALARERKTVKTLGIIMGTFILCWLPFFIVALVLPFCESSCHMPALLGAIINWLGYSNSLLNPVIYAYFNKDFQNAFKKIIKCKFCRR
The experiment in a line: Displacement of [3H]8-OH-DPAT from 5HT1A receptor in Sprague-Dawley rat brain cortex homogenates after 30 mins by liquid scintillation counting. The class given is tissue-based.

In test [3] the target is 5-hydroxytryptamine receptor 2A (Rattus norvegicus, UniProt P14842). Nature of the test: Displacement of [3H]Ketanserin from 5HT2A receptor in Sprague-Dawley rat frontal cortical homogenates after 15 mins.
Test [4] addresses T3, 5-hydroxytryptamine receptor 2C (Rattus norvegicus, UniProt P08909).
T3 sequence (P08909 whole entry): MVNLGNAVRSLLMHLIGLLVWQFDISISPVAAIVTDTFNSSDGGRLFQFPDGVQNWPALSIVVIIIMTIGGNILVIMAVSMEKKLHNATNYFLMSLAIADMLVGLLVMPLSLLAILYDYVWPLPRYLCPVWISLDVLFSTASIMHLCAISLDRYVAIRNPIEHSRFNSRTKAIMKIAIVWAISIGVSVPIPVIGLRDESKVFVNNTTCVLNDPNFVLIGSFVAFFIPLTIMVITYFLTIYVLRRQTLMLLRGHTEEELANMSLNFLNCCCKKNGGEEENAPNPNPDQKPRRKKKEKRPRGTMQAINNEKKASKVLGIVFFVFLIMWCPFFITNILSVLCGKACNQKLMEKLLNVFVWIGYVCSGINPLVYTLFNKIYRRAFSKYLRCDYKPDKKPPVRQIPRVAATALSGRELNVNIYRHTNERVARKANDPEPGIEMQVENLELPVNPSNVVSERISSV
Nature of the test: Displacement of [3H]mesulergine from 5HT2C receptor in Sprague-Dawley rat frontal cortical homogenates after 15 mins.

The test system of another test is PC-3. Nature of the test: Antiproliferative activity against human PC3 cells assessed as growth inhibition after 96 hrs by SRB assay. The class given is functional, cell-based. To be noted: for IC50: PC-3, 96 h.

5-hydroxytryptamine receptor 2A, sequence (P14842 whole entry): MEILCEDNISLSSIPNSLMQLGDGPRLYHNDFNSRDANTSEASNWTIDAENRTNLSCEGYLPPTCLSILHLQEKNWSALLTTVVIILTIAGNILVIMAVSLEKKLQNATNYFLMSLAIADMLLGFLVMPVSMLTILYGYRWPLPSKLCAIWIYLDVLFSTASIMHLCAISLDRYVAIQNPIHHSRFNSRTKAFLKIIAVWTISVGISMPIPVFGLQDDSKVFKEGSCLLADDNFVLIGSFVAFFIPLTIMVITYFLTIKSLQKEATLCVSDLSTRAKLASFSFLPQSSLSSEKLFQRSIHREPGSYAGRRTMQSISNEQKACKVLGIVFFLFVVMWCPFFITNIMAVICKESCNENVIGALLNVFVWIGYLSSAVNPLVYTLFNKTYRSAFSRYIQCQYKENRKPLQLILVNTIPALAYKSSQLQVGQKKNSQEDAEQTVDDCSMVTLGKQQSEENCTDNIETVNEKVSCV
D(2) dopamine receptor, sequence (P61169 whole entry): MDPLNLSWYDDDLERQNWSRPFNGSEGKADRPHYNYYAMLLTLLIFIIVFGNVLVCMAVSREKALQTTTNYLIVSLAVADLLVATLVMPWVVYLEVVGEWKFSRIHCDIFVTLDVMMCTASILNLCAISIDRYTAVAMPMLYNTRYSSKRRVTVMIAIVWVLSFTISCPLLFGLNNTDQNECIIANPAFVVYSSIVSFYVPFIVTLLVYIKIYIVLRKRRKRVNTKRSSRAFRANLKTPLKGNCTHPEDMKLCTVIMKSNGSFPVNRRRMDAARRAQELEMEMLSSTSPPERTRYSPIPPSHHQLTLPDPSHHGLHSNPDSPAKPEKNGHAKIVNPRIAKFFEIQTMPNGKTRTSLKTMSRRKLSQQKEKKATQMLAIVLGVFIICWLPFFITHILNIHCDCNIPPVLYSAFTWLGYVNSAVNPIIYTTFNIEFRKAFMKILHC
D(1A) dopamine receptor, sequence (P18901 whole entry): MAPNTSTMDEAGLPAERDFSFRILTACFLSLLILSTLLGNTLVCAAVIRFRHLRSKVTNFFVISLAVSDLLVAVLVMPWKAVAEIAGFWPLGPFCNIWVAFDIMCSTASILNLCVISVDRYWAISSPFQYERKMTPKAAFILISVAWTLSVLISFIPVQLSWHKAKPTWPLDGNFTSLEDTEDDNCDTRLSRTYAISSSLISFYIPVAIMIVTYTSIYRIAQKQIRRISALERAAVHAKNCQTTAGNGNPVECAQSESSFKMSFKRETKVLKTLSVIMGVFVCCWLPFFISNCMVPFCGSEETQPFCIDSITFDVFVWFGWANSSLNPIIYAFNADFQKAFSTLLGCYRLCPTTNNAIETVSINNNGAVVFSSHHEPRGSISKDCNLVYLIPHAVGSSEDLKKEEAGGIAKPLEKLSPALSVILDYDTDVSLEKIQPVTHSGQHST

Regarding `O=C1C2C3C=CC(C3)C2C(=O)N1OCCCN1CCN(c2cccc3ccccc23)CC1` (stereo unspecified), the Ki in test [1] was greater than 10 µM; at D(1A) dopamine receptor, greater than 10 µM; at D(2) dopamine receptor, 0.263 µM; in test [2] it was 0.000293 µM; in test [3], 0.0918 µM; in test [4], “Not Active”. The “growth inhibition (GI)” value in the test on PC-3 was “Dose-dependent effect”. In addition, the IC50 in the test on PC-3 is 13 µM.
As to `N#C/N=C(\NCCCN1CCN(c2cccc3ccccc23)CC1)c1ccccn1`, the Ki in test [1] is greater than 10 µM; on D(1A) dopamine receptor, greater than 10 µM; at D(2) dopamine receptor, greater than 10 µM; in test [2] it was 0.00585 µM; in test [3] it was 0.224 µM; in test [4] it was “Not Active”. Also, the IC50 with PC-3 amounted to 23.8 µM.
Consider `O=c1c2ccccc2nnn1OCCCN1CCN(c2cccc3ccccc23)CC1`, for which the Ki in test [1] was 0.8 µM; at D(1A) dopamine receptor, greater than 10 µM; on D(2) dopamine receptor it was 0.0854 µM; in test [2], greater than 10 µM; in test [3], 0.721 µM; in test [4], “Not Active”. In addition, the IC50 with PC-3 stood at 12.3 µM.
As for `O=c1c2ccccc2nnn1OCCN1CCN(c2cccc3ccccc23)CC1`, the Ki in test [1] is greater than 10 µM; on D(1A) dopamine receptor, greater than 10 µM; at D(2) dopamine receptor it was greater than 10 µM; in test [2], greater than 10 µM; in test [3] it was 1.32 µM; in test [4], “Not Active”. The “growth inhibition (GI)” value in the test on PC-3 is “inactive”.
As for `O=c1c2ccccc2nnn1CCCN1CCN(c2cccc3ccccc23)CC1`, the Ki in test [1] was 0.562 µM; on D(1A) dopamine receptor, greater than 10 µM; on D(2) dopamine receptor it was greater than 10 µM; in test [2] it was 0.00779 µM; in test [3], 0.127 µM; in test [4] (read-out: Ki), greater than 10 µM. The “growth inhibition (GI)” value with PC-3 is “Dose-dependent effect”. The IC50 in the test on PC-3 turned out to be 10.5 µM.
On to `O=C1C2C3C=CC(C3)C2C(=O)N1OCCN1CCN(c2cccc3ccccc23)CC1` (stereo unspecified), for which the Ki in test [1] is greater than 10 µM; on D(1A) dopamine receptor, greater than 10 µM; on D(2) dopamine receptor it was greater than 10 µM; in test [2] it was 0.00158 µM; in test [3] it was 0.113 µM; in test [4], “Not Active”. In the test on PC-3, the IC50 is 47.7 µM.
Take `O=c1c2ccccc2nnn1CCN1CCN(c2cccc3ccccc23)CC1`: the Ki in test [1] was 0.112 µM; at D(1A) dopamine receptor it was greater than 10 µM; on D(2) dopamine receptor, greater than 10 µM; in test [3], 0.00529 µM; in test [4] (read-out: Ki), greater than 10 µM. Moreover, the “growth inhibition (GI)” value in the test on PC-3 is “Dose-dependent effect”. Besides, the IC50 with PC-3 was determined as 10.6 µM.
